Results published in patent US8952024B2, “Herbicidal pyrimidone derivatives” (E I du Pont de Nemours and Company, priority 2009, dated 2015).

Tests used:
Assay type in all cases: in vivo
[1] = tested on: canarygrass (Phalaris minor); experiment: Test B postemergence plant response
How it was run: (§1)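 Visual ratings from 0 (no effect) to 100 (complete control), made against controls 13–15 days after treatment, kept in a greenhouse. Compounds were applied postemergence to potted plants at the 1- to 4-leaf stage (2–18 cm).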

[2] = tested on: chickweed (Stellaria media); experiment: Test B postemergence plant response
How it was run: as §1

[3] = tested on: winter barley (Hordeum vulgare); experiment: Test B postemergence plant response
How it was run: as §1

[4] = tested on: windgrass (Apera spica-venti); experiment: Test B postemergence plant response
How it was run: as §1

[5] = tested on: morningglory (Ipomoea coccinea); experiment: Test B pre-/postemergence plant response
How it was run: (§2)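 Compound in solvent + surfactant applied pre-em (loam/sand) or post-em (plants 2–18 cm, peat medium); greenhouse hold 13–15 days; visual 0–100 control score.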

[6] = tested on: soybean (Glycine max); experiment: Test B pre-/postemergence plant response
How it was run: as §2

[7] = tested on: cocklebur (Xanthium strumarium); experiment: Test B pre-/postemergence plant response
How it was run: as §2

[8] = tested on: bermudagrass (Cynodon dactylon); experiment: Test B pre-/postemergence plant response
How it was run: as §2

[9] = tested on: blackgrass (Alopecurus myosuroides); experiment: Test B pre-/postemergence plant response
How it was run: as §2

[10] = tested on: corn (Zea mays); experiment: Test B pre-/postemergence plant response
How it was run: as §2

[11] = tested on: wild oat (Avena fatua); experiment: Test B pre-/postemergence plant response
How it was run: as §2

[12] = tested on: johnsongrass (Sorghum halepense); experiment: Test B pre-/postemergence plant response
How it was run: as §2

[13] = tested on: kochia (Kochia scoparia); experiment: Test B pre-/postemergence plant response
How it was run: as §2

[14] = tested on: giant foxtail (Setaria faberii); experiment: Test B pre-/postemergence plant response
How it was run: as §2

[15] = 31 g ai/ha, postemergence, scale 0 to 100, 0 is no effect, 100 is complete control
[16] = 62 g ai/ha, postemergence, 0 is no effect, 100 is complete control, 13 to 15 days
[17] = Postemergence, 125 g ai/ha, visual rating after 13 to 15 days, scale 0 (no effect) to 100 (complete control)
[18] = Postemergence, 250 g ai/ha, scale 0 to 100 (0 no effect, 100 complete control)

`CC(C)CC(=O)OC1=C(C(=O)c2cnc(-c3ccccc3)n(-c3ccccc3)c2=O)C(=O)CCC1` [Compound 83] was tested, and the “Plant response rating, Canarygrass” value [1, 15] was 20, the “Canarygrass plant response rating (0 to 100 scale)” value [1, 16] was 20 and the “Plant response rating, Canarygrass” value [1, 17] was 25. For the same compound, the “Plant response rating, Canarygrass” value [1, 18] was 25, the “Plant response rating, Chickweed” value [2, 15] was 90 and the “Chickweed plant response rating (0 to 100 scale)” value [2, 16] was 90. For the same compound, the “Plant response rating, Chickweed” value [2, 17] was 98, the “Plant response rating, Chickweed” value [2, 18] was 100 and the “Plant response rating, Barley” value [3, 15] was 0. The “Barley plant response rating (0 to 100 scale)” value [3, 16] was 5, the “Plant response rating, Barley” value [3, 17] was 5 and the “Plant response rating, Barley” value [3, 18] was 5. The “Plant response rating, Windgrass” value [4, 15] was 5, the “Windgrass plant response rating (0 to 100 scale)” value [4, 16] was 10 and the “Plant response rating, Windgrass” value [4, 18] was 30. The “Plant response rating, Morningglory” value [5, 15] was 70, the “Morningglory plant response rating (0 to 100 scale)” value [5, 16] was 75 and the “Plant response rating, Morningglory” value [5, 18] was 100. For the same compound, the “Plant response rating, Soybean” value [6, 15] was 75, the “Soybean plant response rating (0 to 100 scale)” value [6, 16] was 90 and the “Plant response rating, Soybean” value [6, 18] was 95. For the same compound, the “Plant response rating, Cocklebur” value [7, 15] was 75, the “Cocklebur plant response rating (0 to 100 scale)” value [7, 16] was 80 and the “Plant response rating, Cocklebur” value [7, 17] was 80. For the same compound, the “Plant response rating, Cocklebur” value [7, 18] was 90, the “Plant response rating, Bermudagrass” value [8, 15] was 75 and the “Bermudagrass plant response rating (0 to 100 scale)” value [8, 16] was 75. For the same compound, the “Plant response rating, Bermudagrass” value [8, 17] was 85, the “Plant response rating, Bermudagrass” value [8, 18] was 90 and the “Plant response rating, Blackgrass” value [9, 15] was 0. For the same compound, the “Blackgrass plant response rating (0 to 100 scale)” value [9, 16] was 0, the “Plant response rating, Blackgrass” value [9, 17] was 0 and the “Plant response rating, Blackgrass” value [9, 18] was 0. The “Plant response rating, Corn” value [10, 15] was 0, the “Corn plant response rating (0 to 100 scale)” value [10, 16] was 5 and the “Plant response rating, Corn” value [10, 17] was 15. The “Plant response rating, Corn” value [10, 18] was 25, the “Plant response rating, Oat, Wild” value [11, 15] was 10 and the “Oat, Wild plant response rating (0 to 100 scale)” value [11, 16] was 10. For the same compound, the “Plant response rating, Oat, Wild” value [11, 18] was 10, the “Plant response rating, Johnsongrass” value [12, 15] was 95 and the “Johnsongrass plant response rating (0 to 100 scale)” value [12, 16] was 100. The “Plant response rating, Johnsongrass” value [12, 18] was 100, the “Plant response rating, Kochia” value [13, 15] was 65 and the “Kochia plant response rating (0 to 100 scale)” value [13, 16] was 75. For the same compound, the “Plant response rating, Kochia” value [13, 18] was 95, the “Plant response rating, Foxtail, Giant” value [14, 15] was 80 and the “Foxtail, Giant plant response rating (0 to 100 scale)” value [14, 16] was 95. The “Plant response rating, Foxtail, Giant” value [14, 18] was 98.
